Experimental data as given in patent US20240254085A1, “CHELATORS FOR RADIOMETALS AND METHODS OF MAKING AND USING SAME” (The University of British Columbia, priority 2021, published 2024).

Experiments:
[1] = literature value (ref 40); cited from earlier work
[2] = literature value (ref 11); cited from earlier work
[3] = cited from earlier work
[4] = Protonation constants by combined potentiometric-spectrophotometric and acidic in-batch UV-vis titrations; type: physicochemical; details: 25° C.
Excerpt: Prior to investigation of the thermodynamic stability of different metal complexes, the protonation constants of the chelating ligand must be determined independently, due to the competition between a given metal ion with a proton for the same coordinating group in the metal complex reaction. Combined potentiometric and UV-vis spectrophotometric titrations were used to evaluate the protonation constants of H4noneunpaX between pH˜2-11.5, while acidic in-batch UV-vis spectrophotometric titrations were used to determine the protonation constants for the most acidic protons, which were below the threshold of the pH electrode (pH<2). All eight protonation constants for H4noneunpaX were determined through refinement of the experimental data using HyperSpec^24 and Hyperquad^25, Table 3.
(§1) All potentiometric titrations were carried out with a Metrohm Titrando 809 and a Metrohm Dosino 800 with a Ross combined electrode. Direct titrations were recorded using a Varian Cary 60 UV-vis spectrophotometer (200-350 nm spectral range) equipped with an optic dip probe (0.2 cm path length), while acidic in-batch experiments were measured with a standardised glass cuvette (1 cm path length). A temperature-controlled (298 K) 20 mL glass cell with an inlet-outlet adapter for nitrogen gas purging (purified via a 10% NaOH solution to exclude CO2 prior to and during each titration) was used as a titration cell. The electrode was calibrated daily in hydrogen ion concentration by direct titration of HCl with freshly prepared NaOH solution, and the results were analysed with the Gran procedure^55 to determine the standard potential (E°) and the ionic product of water (pKw), at 298 K, with 0.16 M NaCl as a supporting electrolyte. Solutions under study were titrated with carbonate-free NaOH solution (˜0.16 M) which was standardized against freshly recrystallized potassium hydrogen phthalate.
The protonation equilibria of H4noneunpaX were evaluated through combined potentiometric-spectrophotometric titrations of solutions containing the ligand ([L]=9.57×10^−4 M) in 0.16 M NaCl (T=298 K, I=0.2 cm). Electromotive force (EMF) values and UV-vis spectra were recorded after each addition of NaOH, and the apparatuses synchronized to have consistent time-intervals (30 s) between each addition/equilibration and data acquisition. Further acidic in-batch UV-vis spectrophotometry studies were performed to obtain the protonation constants for the most acidic ionisable protons of H4noneunpaX, which were below the threshold of the pH electrode (pH<2). Separate solutions of the ligand were prepared at constant molarity ([L]=1×10^−4 M) with differing amounts of HCl (0.1 M and 3.0 M), while maintaining a constant ionic strength (0.16 M NaCl) wherever possible. In each case, the solution stoichiometry was used to calculate the equilibrium concentration of H^+ ions, following the Hammett acidity function (H0) for determination of acidity in high concentration acid solutions. All eight protonation constants for H4noneunpaX were determined through refinement of the experimental data using HypSpec2014^24 and Hyperquad2013^25 software.
(§2) All the potentiometric measurements were processed using the Hyperquad2013^25 software, while spectroscopic measurements were analysed using HypSpec2014.^24 Proton dissociation constants corresponding to hydrolysis of the Sc^3+, In^3+, Lu^3+, Dy^3+ Gd^3+, Sm^3+, and La^3+ aqueous ions used in the calculations were taken from Baes and Mesmer. Speciation diagrams were generated with the calculated protonation constants and stability constants using Hyss software.^56
(§3) Each species generated in the investigated systems can be defined in accordance with the general equilibrium equation pM+qH+rL=MpHqLr (charges omitted). Wherein, a complex containing a metal ion, M, proton, H and ligand, L, has the general formula MpHqLr. […]

[5] = Complex formation equilibria (stability constants) with Sc^3+; type: physicochemical
Protocol: (§4) To evaluate the affinity of H4noneunpaX towards metal ions of medicinal importance—e.g. Sc^3+, In^3+, Lu^3+, Dy^3+, Gd^3+, Sm^3+, La^3+— the complex formation equilibria were studied using both combined potentiometric-spectrophotometric titrations, and in all cases, acidic in-batch UV-vis spectrophotometric titrations below pH 2. […]
as §1, with “Solutions under study were titrated with carbonate-free NaOH solution (˜0.16 M) which was standardized against freshly recrystallized potassium hydrogen phthalate.” left out
(§5) The complex formation equilibria of H4noneunpaX with Sc^3+, In^3+, Lu^3+, Dy^3+, Gd^3+, Sm^3+, and La^3+ were evaluated using both combined potentiometric-spectrophotometric titrations, and acidic in-batch UV-vis spectrophotometric titrations below pH 2. […] Measurements were recorded at T=298 K, I=1.0 cm, the Hammett acidity function (H0) was used determination of the pH in highly acidic solutions rather than electrode potentials. Metal solutions were prepared from atomic absorption spectroscopy (AAS) standards, which were previously evaluated using Gran's method of titrating equimolar solutions of a given metal ion and Na2H2EDTA against NaOH to determine the acid concentration. […]

[6] = Complex formation equilibria (stability constants) with In^3+; type: physicochemical
Protocol: as §4, §1
The complex formation equilibria of H4noneunpaX with Sc^3+, In^3+, Lu^3+, Dy^3+, Gd^3+, Sm^3+, and La^3+ were evaluated using both combined potentiometric-spectrophotometric titrations, and acidic in-batch UV-vis spectrophotometric titrations below pH 2. For combined potentiometric-spectrophotometric titrations (spectral range: 200-350 nm), solutions containing a 1:1 molar ratio of metal-to-ligand ([M^3+]≈[H4noneunpaX]=8.40×10^−4 M) were titrated against NaOH solution at T=298 K, I=0.2 cm. Acidic in-batch UV-vis spectrophotometric measurements (spectral range: 200-350 nm) were carried out using sets of solutions containing a 1:1 molar ratio of metal-to-ligand ([M^3+]≈[H4noneunpaX]≈1×10^−4 M) with differing amounts of HCl (0.1 M and 3.0 M), to give samples ranging from pH 0-2. Measurements were recorded at T=298 K, I=1.0 cm, the Hammett acidity function (H0) was used determination of the pH in highly acidic solutions rather than electrode potentials. Metal solutions were prepared from atomic absorption spectroscopy (AAS) standards, which were previously evaluated using Gran's method of titrating equimolar solutions of a given metal ion and Na2H2EDTA against NaOH to determine the acid concentration.
as §2, §3

[7] = Complex formation equilibria (stability constants) with Lu^3+; type: physicochemical
Protocol: as §4
as §1, with “Solutions under study were titrated with carbonate-free NaOH solution (˜0.16 M) which was standardized against freshly recrystallized potassium hydrogen phthalate.” left out
as §5

[8] = Complex formation equilibria (stability constants) with Dy^3+; type: physicochemical
Protocol: as §4
as §1, with “Solutions under study were titrated with carbonate-free NaOH solution (˜0.16 M) which was standardized against freshly recrystallized potassium hydrogen phthalate.” left out
as §5

[9] = Complex formation equilibria (stability constants) with Gd^3+; type: physicochemical
Protocol: as §4
as §1, with “Solutions under study were titrated with carbonate-free NaOH solution (˜0.16 M) which was standardized against freshly recrystallized potassium hydrogen phthalate.” left out
as §5

[10] = Complex formation equilibria (stability constants) with Sm^3+; type: physicochemical
Protocol: as §4
as §1, with “Solutions under study were titrated with carbonate-free NaOH solution (˜0.16 M) which was standardized against freshly recrystallized potassium hydrogen phthalate.” left out
as §5

[11] = Complex formation equilibria (stability constants) with La^3+; type: physicochemical
Protocol: as §4
as §1, with “Solutions under study were titrated with carbonate-free NaOH solution (˜0.16 M) which was standardized against freshly recrystallized potassium hydrogen phthalate.” left out
as §5

[12] = Human serum stability challenge; type: in vitro ADME; details: complexes with [^111In]In^3+, [^155Tb]Tb^3+, [^177Lu]Lu^3+, [^225Ac]Ac^3+; 37° C., 5-7 days
Protocol: All experiments were performed at 37° C. and monitored via radio-iTLC (n=3).
Human serum stability studies were carried out by addition of each radiolabelled complex or bioconjugate (100 μL) to vials containing human serum albumin (100 μL) and incubating the resulting solutions at 37° C. over 5-7 days. The radiochemical purity (RCP) was determined by iTLC using SA-paper plates and EDTA (50 mM, pH 5.5 or 7.0) as eluent, whereby transchelated radioactivity migrates with the solvent front (Rf=1.0) while intact metal complexes remain at the baseline (Rf=0). All studies were performed in triplicate, and the average % RCP used for assessment of each compound.

[13] = −log[Mfree] when [L] = 10 μM, [M] = 1 μM at pH 7.4

[^177Lu][Lu(DOTATATE)]
accumulation in the adrenal glands [1]: 8.95 % ID/g
accumulation in the lungs [1]: 17.4 % ID/g
accumulation in the pancreas [1]: 10.9 % ID/g
uptake in the kidneys [1]: 6.31 % ID/g

O=C(O)CN(CCN(CC(=O)O)CC(=O)O)CCN(CC(=O)O)CC(=O)O [DTPA]
pLu [2]: 19.1

O=C(O)CN1CCN(CC(=O)O)CCN(CC(=O)O)CCN(CC(=O)O)CC1 [DOTA]
pLu [2]: 17.1

O=C(O)CN(CCOCCN(CC(=O)O)Cc1cccc(C(=O)O)n1)Cc1cccc(C(=O)O)n1 [H4noneunpa]
log K2 ([3]; literature value (ref 13), terminal amine): 7.63

O=C(O)CN(CCOCCN(Cc1cccc(C(=O)O)n1)Cc1cccc(C(=O)O)n1)CC(=O)O [H4noneunpaX]
Σlog KHqL ([4]; I = […] NaCl): 27.35 (6)
log K (log K3) ([4]; H2L + H^+ ↔ H3L, I = […] NaCl): 3.79
log β ([4]; H2L + H^+ ↔ H3L, I = […] NaCl): 19.71 (1)
log K (log K4) ([4]; H3L + H^+ ↔ H4L, I = […] NaCl): 2.83
log β ([4]; H3L + H^+ ↔ H4L, I = […] NaCl): 22.54 (2)
log K (log K5) ([4]; H4L + H^+ ↔ H5L, I = […] NaCl): 2.38
log β ([4]; H4L + H^+ ↔ H5L, I = […] NaCl): 24.92 (3)
log K (log K6) ([4]; H5L + H^+ ↔ H6L, I = […] NaCl): 2.14
log β ([4]; H5L + H^+ ↔ H6L, I = […] NaCl): 27.06 (4)
log K ([4]; H6L + H^+ ↔ H7L, I = […] NaCl): 1.01
log β ([4]; H6L + H^+ ↔ H7L, I = […] NaCl): 28.07 (4)
log β ([4]; H7L + H^+ ↔ H8L): 27.35 (6)
log K (log K2) ([4]; HL + H^+ ↔ H2L, I = […] NaCl): 7.08
log β ([4]; HL + H^+ ↔ H2L, I = […] NaCl): 15.92 (1)
log K (log K1) ([4]; L + H^+ ↔ HL, I = […] NaCl): 8.84
log β ([4]; L + H^+ ↔ HL, I = […] NaCl): 8.84 (1)
log KMHL ([5]; 25° C., I = […] NaCl): 3.07(1)
log KML ([5]; 25° C., I = […] NaCl): 23.57(2)
pM [5, 13]: 22.9
log KM(OH)2L ([6]; 25° C., I = […] NaCl): 9.06(4)
log KM(OH)L ([6]; 25° C., I = […] NaCl): 8.58(4)
log KMHL ([6]; 25° C., I = […] NaCl): 6.17(3)
log KML ([6]; 25° C., I = […] NaCl): 27.64(2)
pM [6, 13]: 26.5
log KMHL ([7]; 25° C., I = […] NaCl): 2.28(3)
log KML ([7]; 25° C., I = […] NaCl): 21.93(3)
pM [7, 13]: 21.3
log KMHL ([8]; 25° C., I = […] NaCl): 2.29(2)
log KML ([8]; 25° C., I = […] NaCl): 21.99(5)
pM [8, 13]: 21.3
log KMHL ([9]; 25° C., I = […] NaCl): 2.80(1)
log KML ([9]; 25° C., I = […] NaCl): 20.87(4)
pM [9, 13]: 20.2
log KMHL ([10]; 25° C., I = […] NaCl): 2.77(1)
log KML ([10]; 25° C., I = […] NaCl): 21.04(2)
pM [10, 13]: 20.4
log KMHL ([11]; 25° C., I = […] NaCl): 3.22(2)
log KML ([11]; 25° C., I = […] NaCl): 18.45(4)
pM [11, 13]: 17.8
release of bound radiometal in human serum [12]: no release of bound radiometal

O=C(O)CN(CCO)CC(=O)O [HEIDA, N-(2-hydroxyethyl)iminodiacetic acid]
log K1 ([3]; literature value (ref 26), iminodiacetate amine): 8.68
